The source of these data is US10100045B2, “3-aryl-2H-pyrazolo[4,3-b]pyridine compounds and their use as AMPA receptor modulators” (Janssen Pharmaceutica NV, priority 2016, dated 2018).

The target of this experiment is GluA1o-γ8 (GRIA1o-CACNG8 fusion construct; TARP γ8 dependent AMPA receptor) (Homo sapiens (Human), UniProt P42261+Q8WXS5). The experiment in a line: Calcium flux assay (FLIPR), inhibition of glutamate response of GluA1o-γ8 channel. It is filed as cell-based. Conditions: HEK293 cells stably expressing GRIA1o-CACNG8 fusion; 15 μM glutamate; negative log of the IC50 in molar. The text has this:
This assay was used to test compounds for their ability to inhibit TARP γ8 dependent AMPA receptor activity. The AMPA receptor is a non-selective cation channel activated by glutamate. Ionotropic glutamate receptors normally desensitize too rapidly to allow detectable calcium influx in a FLIPR assay (Strange et al. (2006). “Functional characterisation of homomeric ionotropic glutamate receptors GluR1-GluR6 in a fluorescence-based high throughput screening assay.” Comb Chem High Throughput Screen 9(2): 147-158). But, this desensitization is incomplete, and a substantial steady-state current remains in the sustained presence of glutamate (Cho et al. (2007). “Two families of TARP isoforms that have distinct effects on the kinetic properties of AMPA receptors and synaptic currents.” Neuron 55(6): 890-904). An in vitro assay was used to determine the potency of test compounds as inhibitors of the glutamate response of the channel formed by GluA1o-γ8. To ensure a 1:1 stoichiometry of GluA1o and γ8 subunits in the expressed channel, a fusion of the cDNAs for GRIA1o and CACNG8 was used. Following Shi et al (2009) “The stoichiometry of AMPA receptors and TARPs varies by neuronal cell type.” Neuron 62(5): 633-640), the C-terminus of the cDNA for GRIA1o was fused to the N-terminus of the cDNA for γ8. The linker sequence was QQQQQQQQQQEFAT. Channels expressed with this construct appear to have similar properties to channels formed by co-expression of GRIA1o with an excess of CACNG8 (Shi et al. 2009). A clonal cell line in HEK293 cells stably expressing this construct, with a geneticin selection marker, was generated for use in this assay.
Cell expressing the GRIA1o-CACNG8 fusion construct were grown in a monolayer in 96- or 384-well microtiter plates. They were washed with assay buffer (135 mM NaCl, 4 mM KCl, 3 mM CaCl2, 1 mM MgCl2, 5 mM glucose, 10 mM HEPES, pH 7.4, 300 mOs) using a Biotek EL405 plate washer. The cells were then loaded with a calcium-sensitive dye (Calcium-5 or Calcium-6, Molecular Devices) and the test compounds at a range of concentrations. Calcium flux following the addition of 15 μM glutamate was monitored using a Molecular Devices FLIPR Tetra. The fluorescence in each well was normalized to the fluorescence of negative and positive control wells. The negative control wells had no added compounds, and the positive control wells had been incubated with 10 μM CP465022 (a non-subtype-selective AMPA receptor antagonist) (Lazzaro et al. (2002). “Functional characterization of CP-465,022, a selective, noncompetitive AMPA receptor antagonist.” Neuropharmacology 42(2): 143-153). The responses to glutamate as functions of the test compound concentrations were fitted to a four-parameter logistic function. The fitted parameter corresponding to the midpoint was taken to be the potency of inhibition of the compound. The data in Table 3 below illustrates the observed potentcy for the compounds described herein. pIC50 refers to the negative log of the IC50 in molar.
On the technique in general: Calcium flux is commonly read through the fluorescence of an indicator in the cells.

Sequence of GluA1o-γ8 (GRIA1o-CACNG8 fusion construct; TARP γ8 dependent AMPA receptor) (P42261 other isoform, or with tags, fused parts or gaps): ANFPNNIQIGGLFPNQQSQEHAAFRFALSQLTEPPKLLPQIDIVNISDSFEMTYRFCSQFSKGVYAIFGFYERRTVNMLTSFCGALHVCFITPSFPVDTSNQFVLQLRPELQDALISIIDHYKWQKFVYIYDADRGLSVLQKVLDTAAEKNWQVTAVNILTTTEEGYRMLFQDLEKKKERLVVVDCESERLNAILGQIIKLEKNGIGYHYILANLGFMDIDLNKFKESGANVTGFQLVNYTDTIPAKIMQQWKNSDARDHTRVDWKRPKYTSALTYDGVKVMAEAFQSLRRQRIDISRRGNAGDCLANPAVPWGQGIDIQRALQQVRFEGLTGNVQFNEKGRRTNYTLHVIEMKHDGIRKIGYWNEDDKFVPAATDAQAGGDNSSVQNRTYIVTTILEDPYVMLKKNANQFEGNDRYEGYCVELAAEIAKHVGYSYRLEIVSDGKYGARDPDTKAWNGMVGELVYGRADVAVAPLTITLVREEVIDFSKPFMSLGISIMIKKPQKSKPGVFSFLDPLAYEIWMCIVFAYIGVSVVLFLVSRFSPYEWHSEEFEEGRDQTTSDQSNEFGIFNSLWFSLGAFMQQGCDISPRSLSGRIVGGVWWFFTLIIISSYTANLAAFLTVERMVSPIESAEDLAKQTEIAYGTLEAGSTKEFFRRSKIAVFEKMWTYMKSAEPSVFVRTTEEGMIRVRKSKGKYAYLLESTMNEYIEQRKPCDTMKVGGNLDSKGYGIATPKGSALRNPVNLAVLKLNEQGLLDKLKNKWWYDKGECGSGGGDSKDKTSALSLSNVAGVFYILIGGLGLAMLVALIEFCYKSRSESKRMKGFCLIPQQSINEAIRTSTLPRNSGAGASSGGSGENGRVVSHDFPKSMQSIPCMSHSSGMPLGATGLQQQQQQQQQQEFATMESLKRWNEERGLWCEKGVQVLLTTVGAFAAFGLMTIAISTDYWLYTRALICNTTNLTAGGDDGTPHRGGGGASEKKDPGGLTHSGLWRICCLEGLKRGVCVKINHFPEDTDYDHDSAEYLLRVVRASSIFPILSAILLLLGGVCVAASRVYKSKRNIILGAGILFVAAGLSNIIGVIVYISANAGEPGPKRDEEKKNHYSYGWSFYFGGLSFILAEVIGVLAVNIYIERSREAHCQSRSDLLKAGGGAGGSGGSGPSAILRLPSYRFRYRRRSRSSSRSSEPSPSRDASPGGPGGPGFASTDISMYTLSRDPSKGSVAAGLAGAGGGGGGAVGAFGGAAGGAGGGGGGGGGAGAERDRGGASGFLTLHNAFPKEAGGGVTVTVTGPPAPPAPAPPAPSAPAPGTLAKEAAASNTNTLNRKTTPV

`Cn1nc2ccc(C(F)(F)F)nc2c1-c1ccc2[nH]c(=O)[nH]c2c1` [Example 1, 5-(2-Methyl-5-(trifluoromethyl)-2H-pyrazolo[4,3-b]pyridin-3-yl)-1,3-dihydro-2H-benzo[d]imidazol-2-one]: the pIC50 was 6.5. With `Cc1cc(-c2c3nc(C(F)(F)F)ccc3nn2C)cc2c1NC(=O)C2` [Example 2, 7-Methyl-5-(2-methyl-5-(trifluoromethyl)-2H-pyrazolo[4,3-b]pyridin-3-yl)indolin-2-one], the pIC50 is given as 7.9. In the case of `Cc1cc(-c2c3nc(C(F)(F)F)ccc3nn2C(F)F)cc2c1NC(=O)C2` [Example 3, 5-[2-(Difluoromethyl)-5-(trifluoromethyl)pyrazolo[4,3-b]pyridin-3-yl]-7-methyl-indolin-2-one], the pIC50 is on record as 9.0. Regarding `CCn1nc2ccc(C(F)(F)F)nc2c1-c1ccc2[nH]c(=O)[nH]c2c1` [Example 4, 5-(2-Ethyl-5-(trifluoromethyl)-2H-pyrazolo[4,3-b]pyridin-3-yl)-1,3-dihydro-2H-benzo[d]imidazol-2-one], the pIC50 was 7.0. `CC(C)n1nc2ccc(C(F)(F)F)nc2c1-c1ccc2[nH]c(=O)[nH]c2c1` [Example 5, 5-(2-Isopropyl-5-(trifluoromethyl)-2H-pyrazolo[4,3-b]pyridin-3-yl)-1,3-dihydro-2H-benzo[d]imidazol-2-one]: the pIC50 is recorded as 7.6. With `O=c1[nH]c2ccc(-c3c4nc(C(F)(F)F)ccc4nn3CC3CCC3)cc2[nH]1` [Example 6, 5-(2-(Cyclobutylmethyl)-5-(trifluoromethyl)-2H-pyrazolo[4,3-b]pyridin-3-yl)-1,3-dihydro-2H-benzo[d]imidazol-2-one], the negative logarithm of the IC50 (pIC50) was determined as 6.9. Still for that read-out and setting: the same measure for `O=c1[nH]c2ccc(-c3c4nc(C(F)(F)F)ccc4nn3C3CCCC3)cc2[nH]1` [Example 7, 5-(2-Cyclopentyl-5-(trifluoromethyl)-2H-pyrazolo[4,3-b]pyridin-3-yl)-1,3-dihydro-2H-benzo[d]imidazol-2-one]: 7.8; for `Cc1cc(-c2c3nc(C(F)(F)F)ccc3nn2C2CCCC2)cc2cn[nH]c12` [Example 8, 2-Cyclopentyl-3-(7-methyl-1H-indazol-5-yl)-5-(trifluoromethyl)-2H-pyrazolo[4,3-b]pyridine]: 9.9. On the same count and under the same terms, the same measure for `O=c1[nH]c2ccc(-c3c4nc(C(F)(F)F)ccc4nn3-c3ccccc3)cc2[nH]1` [Example 9, 5-(2-Phenyl-5-(trifluoromethyl)-2H-pyrazolo[4,3-b]pyridin-3-yl)-1,3-dihydro-2H-benzo[d]imidazol-2-one]: 8.8. The same measure, in the same setting: the same measure for `O=C1Cc2cc(-c3c4nc(C(F)(F)F)ccc4nn3-c3ccccc3)ccc2N1` [Example 10, 5-(2-Phenyl-5-(trifluoromethyl)-2H-pyrazolo[4,3-b]pyridin-3-yl)indolin-2-one]: 8.2; for `FC(F)(F)c1ccc2nn(-c3ccccc3)c(-c3ccc4[nH]ncc4c3)c2n1` [Example 11, 3-(1H-Indazol-5-yl)-2-phenyl-5-(trifluoromethyl)-2H-pyrazolo[4,3-b]pyridine]: 8.5. On to `FC(F)(F)c1ccc2nn(C3CCC3)c(-c3ccc4[nH]ncc4c3)c2n1` [Example 12, 2-Cyclobutyl-3-(1H-indazol-5-yl)-5-(trifluoromethyl)-2H-pyrazolo[4,3-b]pyridine], for which the pIC50 is on record as 9.2. For `COCCn1nc2ccc(C(F)(F)F)nc2c1-c1ccc2[nH]ncc2c1` [Example 13, 3-(1H-Indazol-5-yl)-2-(2-methoxyethyl)-5-(trifluoromethyl)-2H-pyrazolo[4,3-b]pyridine], the pIC50 came to 6.1. Take `FC(F)(F)c1ccc2nn(-c3ccccn3)c(-c3ccc4[nH]ncc4c3)c2n1` [Example 14, 3-(1H-Indazol-5-yl)-2-(pyridin-2-yl)-5-(trifluoromethyl)-2H-pyrazolo[4,3-b]pyridine]: the negative-log IC50 (pIC50) amounted to 6.9. Regarding `Cc1cc(-c2c3nc(C(F)(F)F)ccc3nn2C)cc2cn[nH]c12` [Example 15, 2-Methyl-3-(7-methyl-1H-indazol-5-yl)-5-(trifluoromethyl)-2H-pyrazolo[4,3-b]pyridine], the negative logarithm of the IC50 (pIC50) stood at 9.0. In the case of `Cn1nc2ccc(C(F)(F)F)nc2c1-c1cc(Cl)c2[nH]ncc2c1` [Example 16, 3-(7-Chloro-1H-indazol-5-yl)-2-methyl-5-(trifluoromethyl)-2H-pyrazolo[4,3-b]pyridine], the pIC50 is given as 9.5. Regarding `CCn1nc2ccc(C(F)(F)F)nc2c1-c1cc(C)c2c(c1)CC(=O)N2` [Example 17, 5-(2-Ethyl-5-(trifluoromethyl)-2H-pyrazolo[4,3-b]pyridin-3-yl)-7-methylindolin-2-one], the pIC50 was found to be 8.3. In the case of `CCn1nc2ccc(C(F)(F)F)nc2c1-c1cc(Cl)c2c(c1)CC(=O)N2` [Example 18, 7-Chloro-5-(2-ethyl-5-(trifluoromethyl)-2H-pyrazolo[4,3-b]pyridin-3-yl)indolin-2-one], the pIC50 is given as 8.6. For `CCn1nc2ccc(C(F)(F)F)nc2c1-c1cc(C)c2[nH]ncc2c1` [Example 19, 2-Ethyl-3-(7-methyl-1H-indazol-5-yl)-5-(trifluoromethyl)-2H-pyrazolo[4,3-b]pyridine], the IC50 was 0.794 nM. As to `CCn1nc2ccc(C(F)(F)F)nc2c1-c1cc(Cl)c2[nH]ncc2c1` [Example 20, 3-(7-Chloro-1H-indazol-5-yl)-2-ethyl-5-(trifluoromethyl)-2H-pyrazolo[4,3-b]pyridine], the pIC50 amounted to 9.4.

Regarding `Cc1cc(-c2c3nc(C(F)(F)F)ccc3nn2C(C)C)cc2c1NC(=O)C2` [Example 21, 5-(2-Isopropyl-5-(trifluoromethyl)-2H-pyrazolo[4,3-b]pyridin-3-yl)-7-methylindolin-2-one], the pIC50 is 9.4. For `CC(C)n1nc2ccc(C(F)(F)F)nc2c1-c1cc(Cl)c2c(c1)CC(=O)N2` [Example 22, 7-Chloro-5-(2-isopropyl-5-(trifluoromethyl)-2H-pyrazolo[4,3-b]pyridin-3-yl)indolin-2-one], the pIC50 was 9.6.

`Cc1cc(-c2c3nc(C(F)(F)F)ccc3nn2C(C)C)cc2cn[nH]c12` [Example 23, 2-Isopropyl-3-(7-methyl-1H-indazol-5-yl)-5-(trifluoromethyl)-2H-pyrazolo[4,3-b]pyridine]: the pIC50 was 9.6.

Turning to `CC(C)n1nc2ccc(C(F)(F)F)nc2c1-c1cc(Cl)c2[nH]ncc2c1` [Example 24, 3-(7-Chloro-1H-indazol-5-yl)-2-isopropyl-5-(trifluoromethyl)-2H-pyrazolo[4,3-b]pyridine], the pIC50 came to 10.2. `Cc1cc(-c2c3nc(C(F)(F)F)ccc3nn2C2CCC2)cc2c1NC(=O)C2` [Example 25, 5-(2-Cyclobutyl-5-(trifluoromethyl)-2H-pyrazolo[4,3-b]pyridin-3-yl)-7-methylindolin-2-one]: the pIC50 is listed as 10.3. Take `O=C1Cc2cc(-c3c4nc(C(F)(F)F)ccc4nn3C3CCC3)cc(Cl)c2N1` [Example 26, 7-Chloro-5-(2-cyclobutyl-5-(trifluoromethyl)-2H-pyrazolo[4,3-b]pyridin-3-yl)indolin-2-one]: the pIC50 is 10.5. On the same count and under the same terms, the result for `Cc1cc(-c2c3nc(C(F)(F)F)ccc3nn2C2CCC2)cc2cn[nH]c12` [Example 27, 2-Cyclobutyl-3-(7-methyl-1H-indazol-5-yl)-5-(trifluoromethyl)-2H-pyrazolo[4,3-b]pyridine] reads 10.7.

By pIC50 is commonly meant the negative decadic logarithm of the IC50, by convention in mol/L. A word on the IC50: it is the midpoint of a concentration-inhibition curve.
